According to patent publication US8143254B2, “Methods for modulating ion channels” (Cornell Research Foundation, Inc., priority 2005, dated 2012):
Read-outs that look alike come from different tables or passages of the source.

Target: T1, MiRP2-Kv2.1 (Rattus norvegicus, UniProt P15387)
T1 construct: expressed in transfected cells; host or cells: Xenopus oocytes (co-injected cRNA)
T1 sequence (P15387 1-857): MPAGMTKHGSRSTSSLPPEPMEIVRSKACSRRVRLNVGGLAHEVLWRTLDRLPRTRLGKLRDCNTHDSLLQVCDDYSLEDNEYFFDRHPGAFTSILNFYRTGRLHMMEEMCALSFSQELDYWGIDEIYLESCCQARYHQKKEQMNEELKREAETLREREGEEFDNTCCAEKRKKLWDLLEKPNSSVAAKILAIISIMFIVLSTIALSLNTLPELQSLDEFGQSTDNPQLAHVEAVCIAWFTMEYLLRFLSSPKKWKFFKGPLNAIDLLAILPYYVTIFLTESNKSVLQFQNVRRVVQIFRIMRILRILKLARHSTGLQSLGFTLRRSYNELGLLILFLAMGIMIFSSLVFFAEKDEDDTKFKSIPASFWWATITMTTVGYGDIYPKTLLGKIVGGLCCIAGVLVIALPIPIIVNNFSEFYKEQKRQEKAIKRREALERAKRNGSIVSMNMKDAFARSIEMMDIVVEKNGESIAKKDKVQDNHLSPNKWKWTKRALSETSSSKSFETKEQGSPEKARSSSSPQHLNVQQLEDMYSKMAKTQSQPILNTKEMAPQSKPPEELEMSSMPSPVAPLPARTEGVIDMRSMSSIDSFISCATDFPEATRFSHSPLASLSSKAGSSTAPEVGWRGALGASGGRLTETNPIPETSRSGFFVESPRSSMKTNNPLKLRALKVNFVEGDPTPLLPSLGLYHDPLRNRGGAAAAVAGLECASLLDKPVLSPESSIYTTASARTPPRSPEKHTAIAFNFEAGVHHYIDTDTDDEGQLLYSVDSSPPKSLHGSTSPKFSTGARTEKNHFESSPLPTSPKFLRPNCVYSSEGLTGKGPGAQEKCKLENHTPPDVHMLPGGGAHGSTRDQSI
T1 sequence (Q9Y6H6 1-103 partner): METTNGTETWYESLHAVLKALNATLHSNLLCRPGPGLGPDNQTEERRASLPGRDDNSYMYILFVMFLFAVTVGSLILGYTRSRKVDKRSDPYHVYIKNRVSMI
Test: TEVC of Xenopus oocytes co-injected with Kv2.1 and MiRP2 cRNA
Format: cell-based
Details: for p (Hill slope) of logistic dose-response fit: MiRP2-Kv2.1; for effect of MiRP2 on sensitivity of Kv2.1 to the compound: MiRP2-Kv2.1 versus Kv2.1 alone
Method: Stage V-VI Xenopus oocytes are separated into small groups using forceps, defolliculated by agitation in Ca^2+-free Ringer solution containing collagenase for one hour, washed, then stored at 15° C. in full Ringers solution before injection. cRNA sufficient to give 1-10 μA of current at physiological voltages for each channel type is injected into Xenopus oocytes (selected by appearance for overall health and uniformity of color) using a Sutter manual injector (typically 0.1-5 ng cRNA in a volume of 25-50 nl). The oocytes are then stored for 1-3 days at 15° C. before TEVC recording. Beta subunit cRNA is co-injected as appropriate, typically 2 ng per oocyte.
Whole cell oocyte experiments are performed using a Warner OC-725C amplifier and pClamp9 software with oocytes bathed in a small-volume Warner oocyte bath and viewed with a Fisher dissection microscope. Bath solution for whole cell oocyte recordings, e.g., for potassium channel analysis, is generally (in mM): 96 NaCl, 4 KCl, 1 MgCl2, 0.3 CaCl2, 10 HEPES (Ph 7.4); whole-cell oocyte TEVC pipettes are filled with 3 M KCl. Oocyte patches are studies using an Axon Instruments small-volume bath, viewed with an Olympus IX50 inverted microscope, and recordings made using an Axon Multiclamp 700 A Amplifier and pCLAMP9 software (Axon Instruments). Extracellular solution, e.g., for potassium channel analysis, is generally (in mM): 135 NaCl, 5 KCl, 1.2 MgCl2, 5 HEPES, 2.5 CaCl2, 10 D-glucose (Ph 7.4). Intracellular solution, e.g., for potassium channel analysis, is generally (in mM): 10 NaCl, 117 KCl, 2 MgCl2, 11 HEPES, 11 EGTA, ICaCl2 (Ph 7.2). Patch pipettes are approximately 3-5 MΩ resistance when filled with recording solution.
Quantitative aspects of ion action on ion channels are compared using standard pulse protocols. Pulse times and voltages will vary according to which currents are being studied. I/V and G/V curves are typically fit to a standard Boltzmann function: 1/{1+exp[(V1/2−V)/Vs]}, where V1/2 is the half-maximal voltage of activation and Vs the slope factor, for quantification and comparison. Kinetics of drug effects upon wash-in are generally fit with single or multiple exponential functions and values for τ and amplitude reported. Drug inhibition constants are calculated after generating a dose response curve by fitting with a logistic dose-response function (see equation (i) below). Typically, 5-20 cells per group are recorded from for heterologous expression experiments. Values are to be stated as mean±SEM with statistical significance set at p<0.05 (unpaired students t-test, ANOVA or the Mann-Whitney Rank Sum Test as appropriate).
Injected oocytes, bathed in bath solution containing 4 mM KCl, unless otherwise stated, are impaled with current and voltage electrodes and clamped at −80 mV holding potential using a Warner OC-725C amplifier. For single-voltage dose-response assessment, currents are recorded for several pulses (each of 1-5 s at a frequency of 0.1 Hz depending upon channel type) in the absence of drug, until equilibrium current level is reached, and then during further pulses with bath application of various concentrations of drug, each until equilibrium current inhibition is observed, with a washout phase in between to eliminate the possibility of channel run-down and other non-drug effects. […] Drug concentrations are chosen to ensure inhibition values between 0 and 90-100% with at least 3 values within the linear portion of the curve so that the inhibition constant (Ki) can be calculated accurately by fitting with a logistic dose-response function (formula (i)) using the Origin 6.1 graph package.
We explored blocking effects on Kv2.1 with and without the MiRP2 ancillary subunit. Kv2.1 can co-assemble with MiRP2 in rat brain. The sensitivities of two diammonium compounds (JE188 and TA279) were analyzed by functional expression in Xenopus oocytes using two-electrode voltage clamp (TEVC), and bath application of the compounds at various concentrations. […]

Compound: CCCCCCCCCCCC[N+]12CCN(CC1)CC2 [JE188, 1-aza-4-azonia-4-dodecylbicyclo[2.2.2]octane]
- p (Hill slope) of logistic dose-response fit: 1.6±0.2
- IC50 (MiRP2-Kv2.1, external bath application, read-out: x0 of logistic dose-response fit of current inhibition (converted)): 49.2 ± 8.2 µM
- effect of MiRP2 on sensitivity of Kv2.1 to the compound: two-fold decrease in sensitivity

Compound: CCCCCCCCCCCCCCCC[N+]12CCN(CC1)CC2 [TA279, 1-aza-4-azonia-4-hexadecylbicyclo[2.2.2]octane]
- IC50: 1.3 ± 0.4 µM
- p (Hill slope) of logistic dose-response fit: 0.8±0.2
- effect of MiRP2 on sensitivity of Kv2.1 to the compound: did not significantly alter inhibition
